Laboratory results as given in paper PMC4012460, “Seven New and Two Known Lipopeptides as well as Five Known Polyketides: The Activated Production of Silent Metabolites in a Marine-Derived Fungus by Chemical Mutagenesis Strategy Using Diethyl Sulphate” (Marine Drugs, 2014).
pIC50: −log10 of the molar value. Read-outs that look alike come from different tables or passages of the source.

Legend:
[1] = tested on: human prostate carcinoma PC-3 cells; details: read-out: IC50, cytotoxic against PC-3 cells; cited from earlier work
Procedure: (§1) Fellutamide A and B (8) were originally identified for their cytotoxic properties on murine leukemia P388 and L1210, and human epidermoid carcinoma KB cells with IC50 values 0.1–0.8 µg/mL [15].

K562 cells [2] = tested on: K562 cells; set-up: inhibition rate (IR%) on K562 cells: dose or concentration left out as unconfirmed
BGC-823 cells [3] = details: MTT, 24 h
[4] = tested on: murine leukemia P388 and L1210, and human epidermoid carcinoma KB cells; details: one range for both compounds and three cell lines; cited from earlier work
Procedure: as §1

HL-60 cells [5] = details: MTT, 24 h
HeLa cells [6] = details: MTT, 24 h
HeLa cells [7] = experiment: cells; details: Homo sapiens, 24 h, read-out: inhibition rate (IR%) on HeLa cells
HL-60 cells [8] = experiment: cells; details: Homo sapiens, HL-60, 24 h, read-out: inhibition rate (IR%) on HL-60 cells
MCF-7 cells = experiment: cells; details: Homo sapiens, MCF7, 24 h, read-out: inhibition rate (IR%) on MCF-7 cells
BGC-823 cells [9] = experiment: cells; details: Homo sapiens, BGC-823, 24 h, read-out: inhibition rate (IR%) on BGC-823 cells
K562 cells [10] = experiment: cells; details: Homo sapiens, K562, 24 h, read-out: inhibition rate (IR%) on K562 cells
[11] = from IR% at different concentrations
[12] = MTT, 24 h at 37 °C, OD 570 nm, OD means of three wells

Compound: fellutamide D
- pIC50 [1]: 6.80

Compound: COc1cc2c(c3oc4cccc(O)c4c(=O)c13)[C@@H]1C=CO[C@@H]1O2 [Compound 14, Sterigmatocystin]
- inhibition rate (IR%) on K562 cells (K562 cells [2]): 37.5%

Compound: CCCCCCCCC[C@@H](O)CC(=O)N[C@@H](CC(N)=O)C(=O)N[C@@H](CCC(N)=O)C(=O)N[C@H](C=O)CC(C)C [Compound 8, Fellutamide B]
- half-inhibitory concentration (IC50) for BGC-823 (BGC-823 cells [3]; [11]): 77.9 µg/mL
- pIC50 (BGC-823 cells [3]; read-out: half-inhibitory concentration (IC50) for BGC-823, value in brackets, molar): 3.85
- pIC50 (K562 cells [2]; 24 h): 4.28
- half-inhibitory concentration (IC50) for K562 (K562 cells [2]; MTT, 24 h, from IR% at different concentrations): 29.1 µg/mL
- IC50, cytotoxic properties on P388, L1210 and KB cells [4]: 0.1 to 0.8 µg/mL
- half-inhibitory concentration (IC50) for HL-60 (HL-60 cells [5]; [11]): 59.9 µg/mL
- pIC50 (HL-60 cells [5]; read-out: half-inhibitory concentration (IC50) for HL-60, value in brackets, molar): 3.97
- half-inhibitory concentration (IC50) for HeLa (HeLa cells [6]; [11]): 59.5 µg/mL
- pIC50 (HeLa cells [6]; read-out: half-inhibitory concentration (IC50) for HeLa, value in brackets, molar): 3.97

Compound: O=c1[nH]cc(F)c(=O)[nH]1 [Compound 5-FU, 5-fluorouracil]
- inhibition at 100 µg/mL (HeLa cells [7]): 37.4%
- inhibition at 100 µg/mL (HL-60 cells [8]): 38.2%
- inhibition at 100 µg/mL (MCF-7 cells): 47.4%
- inhibition at 100 µg/mL (BGC-823 cells [9]): 47.8%
- inhibition at 100 µg/mL (K562 cells [10]): 48.5%

Compound: CCCCC[C@H](OC)c1c(O)cc2c(c1O)C(=O)c1c(O)cc(O)cc1C2=O [Compound 10, 1′-O-Methylaverantin]
- inhibition rate (IR%) on K562 cells (K562 cells [2]; [12]): 11.6%

Compound: C[C@]12CCC[C@H](O1)c1c(cc3c(c1O)C(=O)c1c(O)cc(O)cc1C3=O)O2 [Compound 12, Averufin]
- inhibition rate (IR%) on K562 cells (K562 cells [2]; [12]): 37.9%

Compound: fellutamide E
- pIC50 [1]: 6.36

Compound: Fellutamide A [reference compound]
- IC50, cytotoxic properties on P388, L1210 and KB cells [4]: 0.1 to 0.8 µg/mL

Compound: C[C@]12CC[C@H](O)[C@H](O1)c1c(cc3c(c1O)C(=O)c1c(O)cc(O)cc1C3=O)O2 [Compound 13, Nidurufin]
- inhibition rate (IR%) on K562 cells (K562 cells [2]; [12]): 25.5%

Compound: CCCCC[C@H](O)c1c(O)cc2c(c1O)C(=O)c1c(O)cc(O)cc1C2=O [Compound 11, Averantin]
- inhibition rate (IR%) on K562 cells (K562 cells [2]; [12]): 51.9%
